System: Pyricularia oryzae Carvara KA301
Experiment: not given
Format: in vivo
Conditions: 2 ppm

In order of falling “Fungicidal Activities RCV (C.V.)” value:
1. CON=C(C(=O)OC)c1ccccc1CON=C(C)c1cccc(OC(F)=C(c2cccc(F)c2)C(F)(F)F)c1 [Compound 182]  95%
2. CON=C(C(=O)OC)c1ccccc1CON=C(C)c1cccc(OC(F)=C(c2cccc(OC)c2)C(F)(F)F)c1 [Compound 180]  86%
3. CON=C(C(=O)OC)c1ccccc1CON=C(C)c1cccc(OC(F)=C(c2cccc(C)c2)C(F)(F)F)c1 [Compound 174]  86%

Same assay, conditions: 50 ppm

In order of rising “Fungicidal Activities RCV (C.V.)” value:
1. CON=C(C(=O)OC)c1ccccc1CON=C(C)c1cccc(OC(F)=C(c2cccc(F)c2)C(F)(F)F)c1 [Compound 182]  95%
2. CON=C(C(=O)OC)c1ccccc1CON=C(C)c1cccc(OC(F)=C(c2cccc(C)c2)C(F)(F)F)c1 [Compound 174]  96%
3. CON=C(C(=O)OC)c1ccccc1CON=C(C)c1cccc(OC(F)=C(c2cccc(OC)c2)C(F)(F)F)c1 [Compound 180]  100%

System: Botrytis cinerae
Experiment: Fungicidal activity against Cucumber Gray Mold Rot (CGM) disease
Format: in vivo
Conditions: 50 ppm

In order of rising “Fungicidal Activities CGM (C.V.)” value:
1. CON=C(C(=O)OC)c1ccccc1CON=C(C)c1cccc(OC(F)=C(c2cccc(C)c2)C(F)(F)F)c1 [Compound 174]  0%
2. CON=C(C(=O)OC)c1ccccc1CON=C(C)c1cccc(OC(F)=C(c2cccc(OC)c2)C(F)(F)F)c1 [Compound 180]  56%
3. CON=C(C(=O)OC)c1ccccc1CON=C(C)c1cccc(OC(F)=C(c2cccc(F)c2)C(F)(F)F)c1 [Compound 182]  77%

System: Phytophthora infestans
Experiment: not given
Format: in vivo
Conditions: 2 ppm

With `CON=C(C(=O)OC)c1ccccc1CON=C(C)c1cccc(OC(F)=C(c2cccc(F)c2)C(F)(F)F)c1` [Compound 182] the “Fungicidal Activities TLB (C.V.)” value was 62%.

Same assay, conditions: 50 ppm

In order of falling “Fungicidal Activities TLB (C.V.)” value:
1. CON=C(C(=O)OC)c1ccccc1CON=C(C)c1cccc(OC(F)=C(c2cccc(OC)c2)C(F)(F)F)c1 [Compound 180]  56%
2. CON=C(C(=O)OC)c1ccccc1CON=C(C)c1cccc(OC(F)=C(c2cccc(F)c2)C(F)(F)F)c1 [Compound 182]  40%
3. CON=C(C(=O)OC)c1ccccc1CON=C(C)c1cccc(OC(F)=C(c2cccc(C)c2)C(F)(F)F)c1 [Compound 174]  0%

System: Puccinia recondita
Experiment: Fungicidal activity against Wheat Leaf Rust (WLR) disease
Format: in vivo
Conditions: 2 ppm

In order of falling “Fungicidal Activities WLR (C.V.)” value:
1. CON=C(C(=O)OC)c1ccccc1CON=C(C)c1cccc(OC(F)=C(c2cccc(OC)c2)C(F)(F)F)c1 [Compound 180]  97%
2. CON=C(C(=O)OC)c1ccccc1CON=C(C)c1cccc(OC(F)=C(c2cccc(F)c2)C(F)(F)F)c1 [Compound 182]  95%
3. CON=C(C(=O)OC)c1ccccc1CON=C(C)c1cccc(OC(F)=C(c2cccc(C)c2)C(F)(F)F)c1 [Compound 174]  90%

Same assay, conditions: 50 ppm

In order of falling “Fungicidal Activities WLR (C.V.)” value:
1. CON=C(C(=O)OC)c1ccccc1CON=C(C)c1cccc(OC(F)=C(c2cccc(OC)c2)C(F)(F)F)c1 [Compound 180]  100%
2. CON=C(C(=O)OC)c1ccccc1CON=C(C)c1cccc(OC(F)=C(c2cccc(C)c2)C(F)(F)F)c1 [Compound 174]  100%
3. CON=C(C(=O)OC)c1ccccc1CON=C(C)c1cccc(OC(F)=C(c2cccc(F)c2)C(F)(F)F)c1 [Compound 182]  100%

System: Erysiphae graminis
Experiment: Fungicidal activity against Barley Powdery Mildew (BPM) disease
Format: in vivo
Conditions: 2 ppm

In order of falling “Fungicidal Activities BPM (C.V.)” value:
1. CON=C(C(=O)OC)c1ccccc1CON=C(C)c1cccc(OC(F)=C(c2cccc(C)c2)C(F)(F)F)c1 [Compound 174]  99%
2. CON=C(C(=O)OC)c1ccccc1CON=C(C)c1cccc(OC(F)=C(c2cccc(OC)c2)C(F)(F)F)c1 [Compound 180]  98%
3. CON=C(C(=O)OC)c1ccccc1CON=C(C)c1cccc(OC(F)=C(c2cccc(F)c2)C(F)(F)F)c1 [Compound 182]  96%

Same assay, conditions: 50 ppm

In order of rising “Fungicidal Activities BPM (C.V.)” value:
1. CON=C(C(=O)OC)c1ccccc1CON=C(C)c1cccc(OC(F)=C(c2cccc(OC)c2)C(F)(F)F)c1 [Compound 180]  100%
2. CON=C(C(=O)OC)c1ccccc1CON=C(C)c1cccc(OC(F)=C(c2cccc(C)c2)C(F)(F)F)c1 [Compound 174]  100%
3. CON=C(C(=O)OC)c1ccccc1CON=C(C)c1cccc(OC(F)=C(c2cccc(F)c2)C(F)(F)F)c1 [Compound 182]  100%

System: Rhizoctonia solani AG-1
Experiment: Fungicidal activity against Rice Sheath Blight (RSB) disease
Conditions: 2 ppm

In order of falling “Fungicidal Activities RSB (C.V.)” value:
1. CON=C(C(=O)OC)c1ccccc1CON=C(C)c1cccc(OC(F)=C(c2cccc(F)c2)C(F)(F)F)c1 [Compound 182]  30%
2. CON=C(C(=O)OC)c1ccccc1CON=C(C)c1cccc(OC(F)=C(c2cccc(OC)c2)C(F)(F)F)c1 [Compound 180]  25%
3. CON=C(C(=O)OC)c1ccccc1CON=C(C)c1cccc(OC(F)=C(c2cccc(C)c2)C(F)(F)F)c1 [Compound 174]  25%

Same assay, conditions: 50 ppm

In order of rising “Fungicidal Activities RSB (C.V.)” value:
1. CON=C(C(=O)OC)c1ccccc1CON=C(C)c1cccc(OC(F)=C(c2cccc(F)c2)C(F)(F)F)c1 [Compound 182]  50%
2. CON=C(C(=O)OC)c1ccccc1CON=C(C)c1cccc(OC(F)=C(c2cccc(OC)c2)C(F)(F)F)c1 [Compound 180]  60%
3. CON=C(C(=O)OC)c1ccccc1CON=C(C)c1cccc(OC(F)=C(c2cccc(C)c2)C(F)(F)F)c1 [Compound 174]  60%
